Assay results: the supplement of paper PMC13380429

Assays:
Conditions in all cases: 72 h
HepG2 [1] = assay: cell viability relative to DMSO; higher = less toxic
U2OS [2] = assay: as above
Vero E6 [3] = assay: as above
Calu-3 [4] = assay: as above
Caco-2 [5] = assay: as above
HepG2 [6] = assay: relative viability EC50 (midpoint between 100% and the lowest measured viability); higher = less toxic
U2OS [7] = assay: as above
Vero E6 [8] = assay: as above
Calu-3 [9] = assay: as above
Caco-2 [10] = assay: as above
HepG2 [11] = assay: drug sensitivity score (DSS) for viability; higher = more toxic; extreme values may be limits of the assay
U2OS [12] = assay: as above
Vero E6 [13] = assay: as above
Calu-3 [14] = assay: as above
Caco-2 [15] = assay: as above

Compound | cell viability (HepG2 [1]; 1 nM) | cell viability (HepG2 [1]; 10 nM) | cell viability (HepG2 [1]; 100 nM) | cell viability (HepG2 [1]; 1000 nM) | cell viability (HepG2 [1]; 10000 nM) | cell viability (U2OS [2]; 1 nM) | cell viability (U2OS [2]; 10 nM) | cell viability (U2OS [2]; 100 nM) | cell viability (U2OS [2]; 1000 nM) | cell viability (U2OS [2]; 10000 nM) | cell viability (Vero E6 [3]; 1 nM) | cell viability (Vero E6 [3]; 10 nM) | cell viability (Vero E6 [3]; 100 nM) | cell viability (Vero E6 [3]; 1000 nM) | cell viability (Vero E6 [3]; 10000 nM) | cell viability (Calu-3 [4]; 1 nM) | cell viability (Calu-3 [4]; 10 nM) | cell viability (Calu-3 [4]; 100 nM) | cell viability (Calu-3 [4]; 1000 nM) | cell viability (Calu-3 [4]; 10000 nM) | cell viability (Caco-2 [5]; 1 nM) | cell viability (Caco-2 [5]; 10 nM) | cell viability (Caco-2 [5]; 100 nM) | cell viability (Caco-2 [5]; 1000 nM) | cell viability (Caco-2 [5]; 10000 nM) | relative viability EC50 (HepG2 [6]) | relative viability EC50 (U2OS [7]) | relative viability EC50 (Vero E6 [8]) | relative viability EC50 (Calu-3 [9]) | relative viability EC50 (Caco-2 [10]) | drug sensitivity score (HepG2 [11]) | drug sensitivity score (U2OS [12]) | drug sensitivity score (Vero E6 [13]) | drug sensitivity score (Calu-3 [14]) | drug sensitivity score (Caco-2 [15])
CC(C)(C)NCC(O)COc1cc(Cl)ccc1Cl (stereo not given) [cloranolol] | 90.7% | 96.2% | 94.6% | 94.8% | 88.7% | 102% | 94.8% | 103% | 97.1% | 106% | 106% | 98.8% | 100% | 95.5% | 90% | 95% | 88.1% | 76.5% | 89.9% | 92.3% | 85.6% | 89.4% | 106% | 112% | 88.8% | > 10 µM | > 10 µM | > 10 µM | > 10 µM | > 10 µM | 0 | 0 | 0 | 0 | 0
Nc1cc(C(Cl)=C(Cl)Cl)c(S(N)(=O)=O)cc1S(N)(=O)=O [clorsulon] | 100% | 106% | 94.2% | 101% | 100% | 96.9% | 97% | 100% | 97% | 102% | 105% | 106% | 96.8% | 102% | 100% | 90.1% | 97.6% | 104% | 97.2% | 101% | 94.8% | 90.5% | 98.5% | 93.8% | 102% | > 10 µM | > 10 µM | > 10 µM | > 10 µM | > 10 µM | 0 | 0 | 0 | 0 | 0
O=S(=O)(O)NC1CCCCC1 [cyclamic-acid] | 112% | 99.5% | 97.8% | 98.8% | 105% | 98.1% | 100% | 96.8% | 101% | 96.3% | 108% | 99.8% | 101% | 99.1% | 106% | 101% | 99.7% | 90% | 101% | 97.8% | 107% | 106% | 85.7% | 98.4% | 93.5% | > 10 µM | > 10 µM | > 10 µM | > 10 µM | > 10 µM | 0 | 0 | 0 | 0 | 0
Nc1nc(N)nc(NC2CC2)n1 [cyromazine] | 96.3% | 105% | 99.8% | 95% | 104% | 94.9% | 93.4% | 97.8% | 96.7% | 103% | 92.8% | 98.2% | 93% | 99.1% | 109% | 105% | 92.6% | 95.7% | 84.6% | 103% | 99.6% | 99.8% | 108% | 95.3% | 96.1% | > 10 µM | > 10 µM | > 10 µM | > 10 µM | > 10 µM | 0 | 0 | 0 | 0 | 0
Cc1ccccc1N1CCN(CCc2nnc3n2CCCC3)CC1 [dapiprazole] | 99.8% | 104% | 92.9% | 94.3% | 102% | 99.2% | 105% | 96.2% | 106% | 102% | 92.9% | 93.2% | 97.6% | 98.9% | 92.8% | 106% | 102% | 92.9% | 102% | 101% | 106% | 99.9% | 86.9% | 98% | 92.5% | > 10 µM | > 10 µM | > 10 µM | > 10 µM | > 10 µM | 0 | 0 | 0 | 0 | 0
CCOC(=O)[C@H](CCc1ccccc1)N[C@@H](C)C(=O)N(CC(=O)O)C1Cc2ccccc2C1 [delapril] | 105% | 102% | 98.3% | 96.7% | 98% | 100% | 93.1% | 103% | 98.6% | 98% | 107% | 102% | 111% | 107% | 99.7% | 98.6% | 101% | 92.3% | 90.6% | 106% | 106% | 103% | 98.2% | 111% | 95.4% | > 10 µM | > 10 µM | > 10 µM | > 10 µM | > 10 µM | 0 | 0 | 0 | 0 | 0
Nc1ncnc2c1ncn2[C@@H]1O[C@H](COP(=O)(O)OP(=O)(O)OP(=O)(O)OP(=O)(O)OC[C@H]2O[C@@H](n3cnc4c(N)ncnc43)[C@H](O)[C@@H]2O)[C@@H](O)[C@H]1O [diadenosine-tetraphosphate] | 94.6% | 101% | 114% | 102% | 104% | 94.5% | 98.1% | 97.7% | 97.5% | 107% | 99% | 102% | 96.5% | 102% | 97% | 106% | 104% | 94.9% | 89.6% | 92.4% | 99.4% | 97.8% | 99.3% | 102% | 107% | > 10 µM | > 10 µM | > 10 µM | > 10 µM | > 10 µM | 0 | 0 | 0 | 0.1 | 0
